Test [1] deals with T1, Tyrosyl-DNA phosphodiesterase 1 (Homo sapiens, UniProt Q9NUW8). Kind of test: Inhibition of Tdp1 (unknown origin) incubated for 30 mins using 5'-/6-TAMN/AGGATCTAAAAGACTT/3BHQ_2/-3' substrate by microplate reader based assay.
The target of test [2] is T1, Tyrosyl-DNA phosphodiesterase 1. As to the kind of experiment: Inhibition of Tdp1 (unknown origin) up to 40 uM incubated for 30 mins using 5'-/6-TAMN/AGGATCTAAAAGACTT/3BHQ_2/-3' substrate by microplate reader based assay.

Calls of active or inactive are those of the source. The rule behind the calls is not given here.

T1 sequence (Q9NUW8 whole entry): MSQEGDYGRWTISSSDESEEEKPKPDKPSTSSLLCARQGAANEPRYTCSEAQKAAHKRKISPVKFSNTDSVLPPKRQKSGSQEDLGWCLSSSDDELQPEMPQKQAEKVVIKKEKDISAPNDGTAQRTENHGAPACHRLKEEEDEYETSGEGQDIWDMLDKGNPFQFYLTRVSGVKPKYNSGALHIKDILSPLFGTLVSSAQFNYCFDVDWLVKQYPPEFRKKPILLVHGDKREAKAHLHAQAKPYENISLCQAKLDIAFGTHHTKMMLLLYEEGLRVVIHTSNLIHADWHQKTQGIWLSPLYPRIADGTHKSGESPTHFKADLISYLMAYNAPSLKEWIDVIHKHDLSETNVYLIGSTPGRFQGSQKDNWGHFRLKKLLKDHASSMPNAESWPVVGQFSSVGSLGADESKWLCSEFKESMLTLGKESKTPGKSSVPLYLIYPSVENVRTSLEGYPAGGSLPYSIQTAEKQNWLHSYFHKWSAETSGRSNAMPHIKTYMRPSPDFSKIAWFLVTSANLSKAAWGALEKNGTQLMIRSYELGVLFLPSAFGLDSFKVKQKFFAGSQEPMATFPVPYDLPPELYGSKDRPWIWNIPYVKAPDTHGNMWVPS

For orientation: IC50 means the concentration that inhibits the measured activity by half. In test [1], `COc1ccc(O[C@@H]2O[C@H](COC(=O)c3cc(O)c(O)c(O)c3)[C@@H](O)[C@H](O)[C@H]2O)cc1OC` came in with a concentration for half-maximal inhibition (IC50) of 1000 nM. `COc1cc([C@@H]2O[C@H]3[C@H](O[C@H]2COC(=O)c2cc(O)c(O)c(O)c2)O[C@H](CO)[C@@H](O)[C@@H]3O)ccc1O`: the inhibition result in test [2] was “inactive”. Still for that read-out and setting: the result for `COc1cc(O[C@@H]2O[C@H](COC(=O)c3cc(O)c(O)c(O)c3)[C@@H](O)[C@H](O)[C@H]2O)cc(OC)c1OC` reads “inactive”; that for `COc1cc([C@@H]2O[C@H]3[C@H](O[C@H]2CO)O[C@H](COC(=O)c2cc(O)c(O)c(O)c2)[C@@H](O)[C@@H]3O)ccc1O`, “inactive”. `COc1cc(C[C@@H](CO)O[C@@H]2O[C@H](COC(=O)c3cc(O)c(O)c(O)c3)[C@@H](O)[C@H](O)[C@H]2O)ccc1O` showed an IC50 in test [1] of 1000 nM.

For the origin of these results see ChEMBL document CHEMBL3588774, “Tyrosyl-DNA Phosphodiesterase I Inhibitors from the Australian Plant Macropteranthes leichhardtii” (J Nat Prod, 2015).
